Assay results from ChEMBL document CHEMBL5506016 (J Med Chem, 2024).
The source made the active and inactive calls. The rule behind the calls is not given here.

Key:
[1] = target: T1, ADP-sugar pyrophosphatase (Homo sapiens, UniProt Q9UKK9); set-up: species or system HEK293
[2] = target: T1, ADP-sugar pyrophosphatase; conditions: filed as antagonist

EC50 [1] [µM] | Activity [2] | Structure (SMILES)
> 10 |  | CC#CC(=O)N1CCC[C@H]1c1nc(-c2ccc(C(=O)Nc3ccccn3)cc2)c2c(N)nccn12 [ACALABRUTINIB]
 | Active | Cn1c(=O)c2c(nc(N3CCN(CCCCN)CC3)n2Cc2nnc(-c3ccc(Cl)c(Cl)c3)o2)n(C)c1=O
> 10 |  | CC#CC(=O)N[C@H]1CCCN(c2c(F)cc(C(N)=O)c3[nH]c(C)c(C)c23)C1 [BRANEBRUTINIB]

Structure (SMILES) | EC50 [1] [µM] | Activity [2]
C=CC(=O)N1CCC[C@@H](n2nc(-c3ccc(Oc4ccccc4)cc3)c3c(N)ncnc32)C1 [IBRUTINIB] | 1.23 | 
